Our source for the TGI values is PubChem BioAssay (NCI).

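Assay format: 96-well plates, 48-hour exposure. At the TGI there is no net growth.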

Some test systems named below: NCI-H226 lung; SF-295 CNS; RXF 393 renal; IGROV1 ovarian; TK-10 renal; HT29 colon; OVCAR-3 ovarian; NCI-H460 lung; OVCAR-5 ovarian; ACHN renal; MDA-MB-231 breast; NCI-H23 lung; BT-549 breast.
Common to all, as to assay: NCI anticancer screen, dose series, 48 h

For the molecule `CCOC(=O)c1[nH]c(-c2[nH]c(-c3[nH]c(-c4[nH]c(C(=O)OCC)c(C)c4C(=O)OCC)c(C(=O)OCC)c3C)c(C)c2C(=O)OCC)c(C(=O)OCC)c1C`, the TGI in the test with NCI-H226 lung, with SF-295 CNS, in the test with RXF 393 renal, in the test on IGROV1 ovarian, with TK-10 renal and in the test on HT29 colon was more than 100 µM throughout. For the same molecule, the TGI in the test on OVCAR-3 ovarian, in the test with NCI-H460 lung, in the test with OVCAR-5 ovarian, in the test on ACHN renal, in the test with MDA-MB-231 breast and in the test with NCI-H23 lung was more than 100 µM in each case.

For the molecule `O=c1cc(CO)oc2c3c(cc(O)c12)OCC(COC1OC(CO)C(O)C(O)C1O)=CC3` (stereo unspecified), the TGI in the test on NCI-H226 lung, in the test on SF-295 CNS, with RXF 393 renal, with IGROV1 ovarian, with TK-10 renal and with HT29 colon was more than 100 µM throughout. For the same molecule, the TGI in the test on OVCAR-3 ovarian, in the test with NCI-H460 lung, with OVCAR-5 ovarian, in the test with ACHN renal and with NCI-H23 lung was more than 100 µM in each case.

Regarding `COc1ccc(-n2c(N)c(C#N)[nH]c2=O)cc1`, the TGI in the test on NCI-H226 lung was more than 10 µM; in the test on SF-295 CNS it was 7.91 µM; in the test on RXF 393 renal it was more than 10 µM; in the test on IGROV1 ovarian, more than 10 µM; in the test on TK-10 renal it was more than 10 µM; with HT29 colon it was more than 10 µM. The TGI with OVCAR-3 ovarian, with NCI-H460 lung, in the test on OVCAR-5 ovarian, in the test on ACHN renal, with MDA-MB-231 breast and in the test on NCI-H23 lung was more than 10 µM in each case.

On to `CCP(=O)(CC)C(Cl)Cl`, for which the TGI in the test on NCI-H226 lung, with SF-295 CNS, in the test on IGROV1 ovarian, with TK-10 renal, in the test with HT29 colon and with OVCAR-3 ovarian was more than 100 µM each time. In addition, the TGI in the test on NCI-H460 lung, in the test on OVCAR-5 ovarian, in the test with ACHN renal, with MDA-MB-231 breast and in the test with NCI-H23 lung was more than 100 µM throughout.

With `O=C(O)Cc1ccc(Nc2nc3cc(C(F)(F)F)ccc3nc2C(=O)O)cc1`, the TGI with NCI-H226 lung, in the test with SF-295 CNS, in the test on RXF 393 renal, with IGROV1 ovarian, in the test on TK-10 renal and with HT29 colon was more than 100 µM in each case. Further, the TGI in the test on OVCAR-3 ovarian, in the test with NCI-H460 lung, in the test with OVCAR-5 ovarian, in the test on BT-549 breast, in the test on ACHN renal and in the test on NCI-H23 lung was more than 100 µM in each case.

Turning to `O=[N+]([O-])c1ccc2c(c1)N([O-])C1(CCCCC1)[N+]2=O`, the TGI in the test with NCI-H226 lung worked out at 37.4 µM; in the test with SF-295 CNS it was 34 µM; in the test on RXF 393 renal, 32.4 µM; in the test with IGROV1 ovarian, 36.9 µM; in the test on TK-10 renal it was 26.2 µM; in the test with HT29 colon, 43.3 µM. The TGI was 51 µM with OVCAR-3 ovarian; 37 µM in the test with NCI-H460 lung; 34.7 µM with OVCAR-5 ovarian; 33.8 µM with ACHN renal; 34.4 µM in the test on MDA-MB-231 breast; 66.3 µM with NCI-H23 lung.

`c1cc2c(cc1NC1=NCCO1)OCO2`: the TGI with NCI-H226 lung, with SF-295 CNS, in the test with RXF 393 renal, in the test with IGROV1 ovarian, with TK-10 renal and in the test with HT29 colon was more than 100 µM throughout. For the same molecule, the TGI in the test with OVCAR-3 ovarian, in the test with NCI-H460 lung, in the test on OVCAR-5 ovarian, in the test on ACHN renal, with MDA-MB-231 breast and with NCI-H23 lung was more than 100 µM throughout.

As to `CC(=O)OCC1OC(n2cc(F)c(=O)[nH]c2=O)C(NC(=O)OCc2ccccc2)C(OC(C)=O)C1OC(C)=O` (stereo unspecified), the TGI in the test with NCI-H226 lung, with SF-295 CNS, in the test on RXF 393 renal, in the test on IGROV1 ovarian, in the test with HT29 colon and in the test on OVCAR-3 ovarian was more than 100 µM throughout. Further, the TGI with NCI-H460 lung, in the test with OVCAR-5 ovarian and with NCI-H23 lung was more than 100 µM throughout.

Take `O=C(/C=C/c1ccccc1)CSc1ncn[nH]1`: the TGI in the test with NCI-H226 lung, with SF-295 CNS, in the test on RXF 393 renal, in the test with IGROV1 ovarian, with TK-10 renal and in the test on HT29 colon was more than 100 µM in each case. In addition, the TGI with OVCAR-3 ovarian, in the test with NCI-H460 lung, with OVCAR-5 ovarian, in the test on BT-549 breast, in the test on ACHN renal and in the test with NCI-H23 lung was more than 100 µM in each case.

Consider `CCCCCCCCCCCCCCCCNC(=O)C(=O)/C=C(\O)c1ccc(C)cc1`, for which the TGI in the test on NCI-H226 lung, with SF-295 CNS, with RXF 393 renal, with IGROV1 ovarian, in the test on TK-10 renal and in the test on HT29 colon was more than 10 µM each time. Also, the TGI in the test on OVCAR-3 ovarian, in the test with NCI-H460 lung, with OVCAR-5 ovarian, with ACHN renal, in the test on MDA-MB-231 breast and in the test on NCI-H23 lung was more than 10 µM in each case.

For `CCOc1ccc2[nH]c3c(C)c4ccncc4c(C)c3c2c1`, the TGI in the test with NCI-H226 lung came out at 4.24 µM; in the test with SF-295 CNS, 2.19 µM; in the test with IGROV1 ovarian it was 2.42 µM; with TK-10 renal, 3.59 µM; in the test with HT29 colon, 2.18 µM; with OVCAR-3 ovarian, 17.7 µM. The TGI in the test with NCI-H460 lung stood at 1.68 µM; with OVCAR-5 ovarian, 2.93 µM; with ACHN renal, 2.25 µM; in the test with NCI-H23 lung, 3.01 µM.

In the case of `Brc1ccc(C[P+]2(c3ccccc3)CCCCC2)cc1`, the TGI in the test on NCI-H226 lung, in the test with SF-295 CNS, in the test with RXF 393 renal, with IGROV1 ovarian, with TK-10 renal and with HT29 colon was more than 100 µM each time. The TGI in the test on OVCAR-3 ovarian, in the test on NCI-H460 lung, in the test on OVCAR-5 ovarian, in the test with ACHN renal and in the test on NCI-H23 lung was more than 100 µM throughout.
